Consider 37 molecules from patent publication US20240217968A1, “PHARMACEUTICAL COMPOUND” (DUKE STREET BIO LIMITED, priority 2021, published 2024).

Structures are written as SMILES.

The IC50 is the concentration at which inhibition is half-maximal.

The target of this assay is T1, recombinant human Flag-tagged PARP7 (amino acids 456-657) (Homo sapiens, UniProt Q7Z3E1).
T1 construct: recombinant human Flag-tagged PARP7 (amino acids 456-657)
T1 sequence (Q7Z3E1 456-657): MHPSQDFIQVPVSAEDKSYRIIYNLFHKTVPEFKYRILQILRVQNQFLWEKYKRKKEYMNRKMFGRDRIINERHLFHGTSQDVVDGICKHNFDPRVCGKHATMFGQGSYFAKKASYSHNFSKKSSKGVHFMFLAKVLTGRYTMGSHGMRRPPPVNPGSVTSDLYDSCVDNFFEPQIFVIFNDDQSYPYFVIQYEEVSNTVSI
As to the kind of experiment: PARP7 biochemical DELFIA assay (auto-MARylation). The settings on record: DELFIA readout, IC50 class. A digest of the protocol:
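Flag-PARP7 (456-657), 12.5-37.5 nM stock, captured on anti-FLAG wells, preincubated 30 min with compound, then auto-MARylated with biotin-NAD+ (15 μM stock) in HEPES pH 7.5/NaCl/DTT/BSA/Tween for 2-3 h at room temperature. NAD+ quench; Eu-streptavidin DELFIA read, Ex337/Em620 nm.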

Consider `[2H]C([2H])(OCCC(=O)N1CCN(c2ncc(C#N)cn2)CC1)C(C)n1nc(C(F)(F)F)c2c(=O)[nH]ncc21` (single isomer, unassigned) [Compound 420, 2-(4-(3-(2-(4-oxo-3-(trifluoromethyl)-4,5-dihydro-1H-pyrazolo[3,4-d]pyridazin-1-yl)propoxy-1,1-d2)propanoyl)piperazin-1-yl)pyrimidine-5-carbonitrile], for which the IC50 is at most 100 nM.

With `[2H]C([2H])(OCCC(=O)N1CCN(c2ncc(C#N)cn2)CC1)C(C)n1nc(C(F)(F)F)c2c(=O)[nH]ncc21` (single isomer, unassigned) [Compound 421, 2-(4-(3-(2-(4-oxo-3-(trifluoromethyl)-4,5-dihydro-1H-pyrazolo[3,4-d]pyridazin-1-yl)propoxy-1,1-d2)propanoyl)piperazin-1-yl)pyrimidine-5-carbonitrile], the half-inhibitory concentration (IC50) is at most 100 nM.

Take `[2H]C([2H])(OCCC(=O)N1CCN(c2ncc(C(F)(F)F)cn2)CC1)C(C)n1nc(C(F)(F)F)c2c(=O)[nH]ncc21` (single isomer, unassigned) [Compound 423]: the IC50 was at most 100 nM.

Consider `O=C(CCOCC(c1cccc2c(=O)[nH]ncc12)C(F)(F)F)N1CCN(c2ncc(C(F)(F)F)cn2)CC1` (single isomer, unassigned) [Compound 427], for which the IC50 lay within 100 to 1000 nM.

Turning to `CC(COCCC(=O)N1CCN(c2cc(C(F)(F)F)on2)CC1)n1nc(C(F)(F)F)c2c(=O)[nH]ncc21` (single isomer, unassigned) [Compound 429], the IC50 is at most 100 nM.

In the case of `CC(COCCC(=O)N1CCN(c2cc(C(F)(F)F)on2)CC1)n1nc(C(F)(F)F)c2c(=O)[nH]ncc21` (single isomer, unassigned) [Compound 430], the IC50 fell in the range of 100 to 1000 nM.

With `CC(COCCC(=O)N1CCN(c2ccc(C#N)cn2)CC1)n1cc(C(F)(F)F)c2c(=O)[nH]ncc21` (single isomer, unassigned) [Compound 431], the IC50 was at most 100 nM.

Regarding `CC(COCCC(=O)N1CCN(c2ccc(C#N)cn2)CC1)n1cc(C(F)(F)F)c2c(=O)[nH]ncc21` (single isomer, unassigned) [Compound 432], the IC50 is at most 100 nM.

As for `CC(COCCC(=O)N1CCN(c2ncc(C(F)(F)F)cn2)CC1)n1nc(C(F)F)c2c(=O)[nH]ncc21` (single isomer, unassigned) [Compound 436], the IC50 is at most 100 nM.

`CC(COCCC(=O)N1CCN(c2ccc(C#N)cn2)CC1)n1nc(C(F)F)c2c(=O)[nH]ncc21` (single isomer, unassigned) [Compound 437]: the IC50 is at most 100 nM.

In the case of `CC(COCCC(=O)N1CCN(c2ncc(C#N)cn2)CC1)n1cc(C(F)F)c2c(=O)[nH]ncc21` (single isomer, unassigned) [Compound 439], the IC50 was at most 100 nM.

Consider `CC(COCCC(=O)N1CCN(c2cc(Cl)c(F)cn2)CC1)n1nc(C(F)(F)F)c2c(=O)[nH]ncc21` (single isomer, unassigned) [Compound 444], for which the IC50 is at most 100 nM.

On to `CC(COCCC(=O)N1CCN(c2cc(Cl)c(F)cn2)CC1)n1nc(C(F)(F)F)c2c(=O)[nH]ncc21` (single isomer, unassigned) [Compound 445], for which the IC50 is at most 100 nM.

For the molecule `CC(COCCC(=O)N1CCN(c2ccc(C#N)cn2)CC1)n1cc(C(F)F)c2c(=O)[nH]ncc21` (single isomer, unassigned) [Compound 448], the IC50 is at most 100 nM.

In the case of `CC(CCOCC(=O)N1CCN(c2ncc(C(F)(F)F)cn2)CC1)n1cc(C(F)(F)F)c2c(=O)[nH]ncc21` (single isomer, unassigned) [Compound 455], the IC50 was at most 100 nM.

For the molecule `CC(CCOCC(=O)N1CCN(c2ncc(Cl)cn2)CC1)n1cc(C(F)(F)F)c2c(=O)[nH]ncc21` (single isomer, unassigned) [Compound 456], the IC50 is at most 100 nM.

Regarding `CC(CCOCC(=O)N1CCN(c2ncc(Cl)cn2)CC1)n1cc(C(F)(F)F)c2c(=O)[nH]ncc21` (single isomer, unassigned) [Compound 457], the IC50 was at most 100 nM.

Regarding `CC(COCC(=O)NC1CCN(c2ncc(C(F)(F)F)cn2)CC1)n1cc(C(F)(F)F)c2c(=O)[nH]ncc21` (single isomer, unassigned) [Compound 459], the IC50 was at most 100 nM.

Regarding `CC(COCC(=O)N(C)C1CCN(c2ncc(C(F)(F)F)cn2)CC1)n1nc(C(F)(F)F)c2c(=O)[nH]ncc21` (single isomer, unassigned) [Compound 460, N-methyl-2-(2-(4-oxo-3-(trifluoromethyl)-4,5-dihydro-1H-pyrazolo[3,4-d]pyridazin-1-yl)propoxy)-N-(1-(5-(trifluoromethyl)pyrimidin-2-yl)piperidin-4-yl) acetamide], the IC50 was at most 100 nM.

On to `CC(COCC(=O)N(C)C1CCN(c2ncc(C(F)(F)F)cn2)CC1)n1nc(C(F)(F)F)c2c(=O)[nH]ncc21` (single isomer, unassigned) [Compound 461, N-methyl-2-(2-(4-oxo-3-(trifluoromethyl)-4,5-dihydro-1H-pyrazolo[3,4-d]pyridazin-1-yl)propoxy)-N-(1-(5-(trifluoromethyl)pyrimidin-2-yl)piperidin-4-yl) acetamide], for which the IC50 was at most 100 nM.

As to `CC(COCC(=O)N(C)C1CCN(c2ncc(C(F)(F)F)cn2)CC1)n1cc(C(F)(F)F)c2c(=O)[nH]ncc21` (single isomer, unassigned) [Compound 462], the IC50 was at most 100 nM.

On to `CC(COCCC(=O)N1CCN(c2ncc(C#N)cn2)CC1)n1cc(C(F)(F)F)c2c(=O)[nH]ncc21` (single isomer, unassigned) [Compound 464], for which the IC50 was at most 100 nM.

For the molecule `CC(CCOCC(=O)N1CCN(c2ccc(C#N)cn2)CC1)n1nc(C(F)(F)F)c2c(=O)[nH]ncc21` (single isomer, unassigned) [Compound 466], the IC50 is at most 100 nM.

With `CC(CCOCC(=O)N1CCN(c2ccc(C#N)cn2)CC1)n1nc(C(F)(F)F)c2c(=O)[nH]ncc21` (single isomer, unassigned) [Compound 467], the IC50 was at most 100 nM.

`CC(COCCC(=O)N1CCN(c2ncc(F)cn2)CC1)n1cc(C(F)(F)F)c2c(=O)[nH]ncc21` (single isomer, unassigned) [Compound 468]: the IC50 is at most 100 nM.

Turning to `CC(COCCC(=O)N1CCN(c2ncc(F)cn2)CC1)n1cc(C(F)(F)F)c2c(=O)[nH]ncc21` (single isomer, unassigned) [Compound 469], the IC50 was at most 100 nM.

As to `CC(COCCC(=O)N1CCN(c2nnc(C(F)(F)F)o2)CC1)n1nc(C(F)(F)F)c2c(=O)[nH]ncc21` (single isomer, unassigned) [Compound 472], the half-maximal inhibitory concentration (IC50) was at most 100 nM.

As to `CC(COCCC(=O)N1CCN(c2nnc(C(F)(F)F)o2)CC1)n1nc(C(F)(F)F)c2c(=O)[nH]ncc21` (single isomer, unassigned) [Compound 473], the IC50 was in the range of 100 to 1000 nM.

As to `[2H]C(C)(COCCC(=O)N1CCN(c2ncc(C(F)(F)F)cn2)CC1)n1cc(C(F)(F)F)c2c(=O)[nH]ncc21` (single isomer, unassigned) [Compound 476, 1-(1-(3-oxo-3-(4-(5-(trifluoromethyl)pyrimidin-2-yl)piperazin-1-yl)propoxy)propan-2-yl-2-d)-3-(trifluoromethyl)-1,5-dihydro-4H-pyrrolo[2,3-d]pyridazin-4-one], the IC50 was at most 100 nM.

For the molecule `[2H]C(C)(COCCC(=O)N1CCN(c2ncc(C(F)(F)F)cn2)CC1)n1cc(C(F)(F)F)c2c(=O)[nH]ncc21` (single isomer, unassigned) [Compound 477, 1-(1-(3-oxo-3-(4-(5-(trifluoromethyl)pyrimidin-2-yl)piperazin-1-yl)propoxy)propan-2-yl-2-d)-3-(trifluoromethyl)-1,5-dihydro-4H-pyrrolo[2,3-d]pyridazin-4-one], the IC50 is at most 100 nM.

`CC(COCC(=O)NC1CCN(c2ncc(C(F)(F)F)cn2)CC1)n1nc(C(F)(F)F)c2c(=O)[nH]ncc21` (single isomer, unassigned) [Compound 479, 2-(2-(4-oxo-3-(trifluoromethyl)-4,5-dihydro-1H-pyrazolo[3,4-d]pyridazin-1-yl)propoxy)-N-(1-(5-(trifluoromethyl)pyrimidin-2-yl)piperidin-4-yl) acetamide]: the IC50 is at most 100 nM.

Turning to `CC(COCC(=O)NC1CCN(c2ncc(C(F)(F)F)cn2)CC1)n1nc(C(F)(F)F)c2c(=O)[nH]ncc21` (single isomer, unassigned) [Compound 480, 2-(2-(4-oxo-3-(trifluoromethyl)-4,5-dihydro-1H-pyrazolo[3,4-d]pyridazin-1-yl)propoxy)-N-(1-(5-(trifluoromethyl)pyrimidin-2-yl)piperidin-4-yl) acetamide], the IC50 was at most 100 nM.

`CC(COCCC(=O)N1CCN(c2ncc(C(C)(F)F)cn2)CC1)n1cc(C(F)(F)F)c2c(=O)[nH]ncc21` (single isomer, unassigned) [Compound 482]: the IC50 is at most 100 nM.

On to `CC(COCCC(=O)N1CCN(c2ccc(C(C)(F)F)cn2)CC1)n1cc(C(F)(F)F)c2c(=O)[nH]ncc21` (single isomer, unassigned) [Compound 484], for which the IC50 is at most 100 nM.

Consider `CC(COCCC(=O)N1CCN(c2ncc(C(C)(F)F)cn2)CC1)n1nc(C(F)(F)F)c2c(=O)[nH]ncc21` (single isomer, unassigned) [Compound 485], for which the IC50 is at most 100 nM.

As to `CC(COCCC(=O)N1CCN(c2ncc(C(C)(F)F)cn2)CC1)n1nc(C(F)(F)F)c2c(=O)[nH]ncc21` (single isomer, unassigned) [Compound 486], the IC50 is at most 100 nM.

Turning to `CC(COCCC(=O)N1CCN(c2ncc(C#N)cn2)CC1)n1nc(C(F)F)c2c(=O)[nH]ncc21` (single isomer, unassigned) [Compound 490], the IC50 is at most 100 nM.
